In patent US7063946B2, “Methods, reagents, kits and apparatus for protein function analysis” (Meso Scale Technologies, LLC., priority 2001, dated 2006):

Key:
pEY = test: In vitro kinase library screen: activity towards pEY; assay type: biochemical; conditions: 5 ul of expressed protein
Procedure: Proteins were produced in an in vitro transcription and translation reaction. […] The unbound components of the reaction containing endogenous kinases were removed by three washes with TT-buffer (25 mM Tris-HCl buffer pH 7.4 and 0.004% Triton), two five minutes washings with high-salt wash buffer (25 mM Tris-HCl buffer pH 7.4, 0.004% Triton, 1M NaCl and 5 mM DTT) and 3 more washes with TT-buffer. To these immobilized and purified proteins a tyrosine kinase substrate, 5 nM pEY (poly Glu-Tyr, Sigma, MO), was added in a 50 μl reaction solution containing 5 mM MgCl2, 5 mM MnCl2, 100 μM ATP, 25 mM Tris-HCl buffer pH 7.4, 0.05 mM Na3VO4, 0.004% TritonX-100, 2 mM DTT and EDTA-free protease inhibitor (Roche Molecular Biochemicals). This mixture was incubated with shaking at room temperature overnight to allow phosphorylation of the pEY substrate by the immobilized kinases. Following this incubation, 45 μl of this mixture was transferred to a streptavidin or avidin-coated NPT IPR plate coated with biotinylated anti-phosphotyrosine antibody (PY20, Zymed labs, CA) followed by incubation for 30 minutes at room temperature to allow the binding of the phosphorylated pEY substrate to the PY20 coated NPT plate. Following this binding step, 50 ng Sulfo-TAG labeled anti-phosphotyrosine in buffer containing 25 mM Tris-HCl buffer pH 7.4, 5 mM MgCl2, 0.05 mM Na3VO4, 0.004% TritonX-100, 2 mM DTT and 0.05% IgG was added followed by incubation at room temperature for 30 mm. The unbound reagents were removed by one time washing with water, and the TAG label was detected in presence of 150 μl IPR assay buffer (0.4 mM Gly-Gly buffer, pH 7.8, 1 mM EDTA, 0.1 M TPA). The ECL signals were measured using an imaging plate reader.
(§1) Proteins were produced in an in vitro transcription and translation reaction as described in the Materials and Methods. […] The reaction was stopped by mixing with BB2 buffer. Biotinylated proteins from 50 μl of the mixture (representing 0.5 μl to 5 μl of TnT reaction) were immobilized onto streptavidin or avidin coated NPT-IPR plates by shaking at room temperature for 45 min. The activity of the immobilized protein towards pEY or autophosphorylation was further assayed by the methods described in examples 7 and 8.

[1] = system: autophosphorylation (phosphotyrosine); test: In vitro kinase library screen: autophosphorylation; assay type: biochemical
Procedure: Proteins were produced from DNA plasmids of Mock Luciferase, Promega, tyrosine kinase clone Spleen Tyrosine kinase (SYK, IMAGE ID# 3870426) and Eph receptor-A7 (EphA7, IMAGE ID# 3991628) (Incyte Genomics, CA) and immobilized on streptavidin or avidin coated NPT-IPR plates as described in the Example 7. To promote autophosphorylation in these immobilized and purified proteins, Mn++ ions were added in a 50 μl reaction containing 5 mM MgCl2, 5 mM MnCl2, 100 μM ATP, 25 mM Tris-HCl buffer pH 7.4, 0.05 mM Na3VO4, 0.004% TritonX-100, 2 mM DTT and EDTA-free protease inhibitor (Roche Molecular Biochemicals). This mixture was incubated with shaking at room temperature overnight to allow autophosphorylation. Following this incubation, wells were washed 2 times with TT-buffer and 2 times with water. Following this step, 50 ng Sulfo-TAG labeled anti-phosphotyrosine in buffer containing 25 mM Tris-HCl buffer pH 7.4, 5 mM MgCl2, 0.05 mM Na3VO4, 0.004% TritonX-100, 2 mM DTT and 0.05% IgG in a final volume of 50 μl was added followed by incubation at room temperature for 45 min. The unbound reagents were removed by one time washing with water, and the TAG label was detected in presence of 150 μl IPR assay buffer (0.4 mM Gly—Gly buffer, pH 7.8, 1 mM EDTA, 0.1 M TPA). The ECL signals were measured using an imaging plate reader.
as §1

[2] = system: pooled phosphopeptide:BSA conjugates (Pools A-D); test: Coded multiplex phosphopeptide binding assay with pooled peptide:BSA conjugates on 4 spots
Source text: To prepare the Multi-Spot IPR plates, in this example we made use of pools of the peptide:BSA conjugates to coat each of 4 spots per well in a 96 well plate. To achieve this we made the following pools; • Pool A; EGFR-pTyr1148, IkBa-24ppC, Myc-p58Tp62S. • Pool B; EGFR-pTyr992, EGFR-pTyr1148, Smad3C. • Pool C; EGFR-pTyr1068, IkBa-24ppC, Smad3C. • Pool D; EGFR-pTyr992, EGFR-pTyr1068, Myc-p58Tp62S.
This combination of the various peptides results in any single peptide being present in two pools. Each of these four pools is then spotted on to a unique spot in a 4 spot array. In this way any single binding protein with specificity for only one of the peptides would bind to two spots; the identity of the two spots would allow the identification of the peptide involved in the binding reaction.
Typically approximately 120 fmole of peptide:BSA conjugate in 0.25 μl was deposited on each spot of a 4-spot multi-array IPR plates using a BioDot Dispenser (Bio-Dot Inc., vIrvine Calif.). At this stage, the plates were dried then used or stored under desiccated condition. A few hours prior to usage, the plates were rehydrated and blocked with 3% BSA, in PBS.
To test the system the following EST clones IMAGE # 3491843, 4237375, 4398016, 4419252, 3872466, 3907115 were obtained. These clones express the following genes βTRCP1, βTRCP2, Grb2, PLCγ, CBP and Shc1, respectively. […] These DNAs were used to produce proteins as described in the Materials and Methods. Proteins were transferred to a well of the 4 spot peptide-coated and BSA blocked ECL plates. The binding assay (using Sulfo-TAG labeled streptavidin as a detection agent) was carried our according to the procedures described in Example 11.

[3] = system: tyrosine kinases reported to be the target of each inhibitor; conditions: read-out: reported IC50 concentration (1× concentration); for the kinase reported to be the target of the inhibitor; cited from earlier work

Compound: 3156953: IMAGE clone protein: Wee1, wee 1 homolog (S. pombe) [compound 3156953]
- HTS signal (pEY): 981
- ECL signal [1]: 27,452

Compound: 3601246: IMAGE clone protein: FRK, B-cell src-homology tyrosine kinase [compound 3601246]
- HTS signal (pEY): 15,235
- ECL signal [1]: 28,243

Compound: 3866791: IMAGE clone protein: JAK1, Janus kinase 1 [compound 3866791]
- HTS signal (pEY): 729

Compound: 3896359: IMAGE clone protein: FGFR1, fibroblast growth factor receptor 1 (fms-related TK2) [compound 3896359]
- HTS signal (pEY): 2,339
- ECL signal [1]: 7,696

Compound: 3921724: IMAGE clone protein: FGR, FYN oncogene related to SRC [compound 3921724]
- HTS signal (pEY): 93,081
- ECL signal [1]: 241,697

Compound: 3982920: IMAGE clone protein: Clk4, CDC like kinase 4 [compound 3982920]
- HTS signal (pEY): 2,244
- ECL signal [1]: 192,787

Compound: 3989782: IMAGE clone protein: Yes, Yamaguchi sarcoma viral (v-yes) oncogene homolog [compound 3989782]
- HTS signal (pEY): 2,208
- ECL signal [1]: 4,542

Compound: 3995512: IMAGE clone protein: CLK2, CDC-like kinase 2 [compound 3995512]
- HTS signal (pEY): 634
- ECL signal [1]: 20,748

Compound: 4036253: IMAGE clone protein: CLK3, CDC-like kinase 3 [compound 4036253]
- HTS signal (pEY): 704
- ECL signal [1]: 42,712

Compound: 4037899: IMAGE clone protein: FGFR1, fibroblast growth factor receptor 1 [compound 4037899]
- HTS signal (pEY): 450,413
- ECL signal [1]: 240,550

Compound: 4181574: IMAGE clone protein: NTRK3, neurotrophic tyrosine kinase [compound 4181574]
- HTS signal (pEY): 36,515
- ECL signal [1]: 55,017

Compound: 4191610: IMAGE clone protein: LCK, lymphocyte protein tyrosine kinase [compound 4191610]
- HTS signal (pEY): 3,110
- ECL signal [1]: 24,183

Compound: 4343428: IMAGE clone protein: PTK2B, protein tyrosine kinase 2 beta [compound 4343428]
- HTS signal (pEY): 57,486
- ECL signal [1]: 274,742

Compound: 4363897: IMAGE clone protein: FGR, FYN oncogene related to SRC [compound 4363897]
- HTS signal (pEY): 402,243
- ECL signal [1]: 44,220

Compound: 4387232: IMAGE clone protein: CLK1, CDC-like kinase 1 [compound 4387232]
- HTS signal (pEY): 5,109
- ECL signal [1]: 423,938

Compound: 4398016: IMAGE clone protein: Grb2 [compound 4398016]
- Code (pattern of positive spots) [2]: C, D
- Peptide determined from code [2]: EGFR-pTyr1068
- ECL signal, spot A ([2]; Pool A, EGFR-pTyr1148, IkBa-24ppC, Myc-p58Tp62S): 36
- ECL signal, spot B ([2]; Pool B, EGFR-pTyr992, EGFR-pTyr1148, Smad3C): 38
- ECL signal, spot C ([2]; Pool C, EGFR-pTyr1068, IkBa-24ppC, Smad3C): 509
- ECL signal, spot D ([2]; Pool D, EGFR-pTyr992, EGFR-pTyr1068, Myc-p58Tp62S): 386

Compound: 4419031: IMAGE clone protein: BLK, B lymphoid tyrosine kinase [compound 4419031]
- HTS signal (pEY): 37,907
- ECL signal [1]: 146,775

Compound: 4419700: IMAGE clone protein: LCK, lymphocyte-specific protein tyrosine kinase [compound 4419700]
- HTS signal (pEY): 898
- ECL signal [1]: 7,230

Compound: 4419973: IMAGE clone protein: FGR, Gardner-Rasheed feline sarcoma viral (v-fgr) oncogene homolog [compound 4419973]
- HTS signal (pEY): 104,946
- ECL signal [1]: 117,395

Compound: 4471986: IMAGE clone protein: ALK, anaplastic lymphoma kinase (Ki-1) [compound 4471986]
- HTS signal (pEY): 905
- ECL signal [1]: 4,069

Compound: 4515877: IMAGE clone protein: Frk, fyn-related kinase [compound 4515877]
- HTS signal (pEY): 271,855
- ECL signal [1]: 148,139

Compound: COc1cc2ncnc(Nc3cccc(Cl)c3)c2cc1OC [AG-1478]
- IC50 [3]: 3 nM

Compound: CCOc1cc2ncnc(Nc3cccc(Br)c3)c2cc1OCC [Compound-56]
- IC50 [3]: 0.006 nM

Compound: CC(C)c1cc(/C=C(\C#N)C(=O)NCCCc2ccccc2)cc(C(C)C)c1O [SU-1498]
- IC50 [3]: 700 nM
